{"source": "patent US9783537B2", "about": "“3-(4-ethylnylphenyl) pyridopyrimidinone compounds and process for preparation thereof useful as potential anticancer agents” (Council of Scientific & Industrial Research, priority 2013, dated 2017)", "key": {"MOLT-4": {"tested_on": "MOLT-4", "assay": "SRB 48 h growth assay, Leukemia MOLT-4", "type": "cell-based, human", "conditions": "MOLT-4, Leukemia; for GI50 / CC50: Homo sapiens; for CC50: read-out: Log10 LC50 (converted)"}, "[1]": {"tested_on": "eight renal cancer cell line (786-0, A498, ACHN, CAKI-1, SN12C, TK-10, UO-31 and RXF 393)", "assay": "in vitro anticancer activity, renal panel", "type": "cell-based", "conditions": "Homo sapiens; eight renal cancer cell lines, exposure at least 48 h; read-out: in vitro anticancer activity, range over panel"}, "SR": {"tested_on": "SR", "assay": "SRB 48 h growth assay, Leukemia SR", "type": "cell-based, human", "conditions": "for GI50 / CC50: Homo sapiens; for CC50: read-out: Log10 LC50 (converted)"}, "[2]": {"tested_on": "sixty human cancer cell lines", "assay": "anticancer activity against sixty human cancer cell lines (NCI)", "protocol": "The compounds were evaluated for anticancer activity against sixty human cancer cells derived from nine cancer types (leukemia cell line, non-small-cell lung cell line, colon cell line, CNS cell line, melanoma cell line, ovarian cell line, prostate cell line, renal cell line and breast cancer cell line) as shown in Table 1. For each compound, dose response curves for each cell line were measured at a minimum of five concentrations at 10 fold dilutions. A protocol of 48 h continuous drug exposure was used and a sulforhodamine B (SRB) protein assay was used to estimate cell viability or growth."}, "UO-31": {"tested_on": "UO-31", "assay": "SRB 48 h growth assay, Renal UO-31", "type": "cell-based, human", "conditions": "UO-31, Renal"}, "SN12C": {"tested_on": "SN12C", "assay": "SRB 48 h growth assay, Renal SN12C", "type": "cell-based, human"}, "HT-29": {"tested_on": "HT-29", "assay": "SRB 48 h growth assay, Colon HT-29", "type": "cell-based, human", "conditions": "HT-29, Colon"}, "IGROV1": {"tested_on": "IGROV1", "assay": "SRB 48 h growth assay, Ovarian IGROV1", "type": "cell-based, human"}, "SK-MEL-2": {"tested_on": "SK-MEL-2", "assay": "SRB 48 h growth assay, Melanoma SK-MEL-2", "type": "cell-based, human", "conditions": "SK-MEL-2, Melanoma"}, "NCI-H460": {"tested_on": "NCI-H460", "assay": "SRB 48 h growth assay, Non-small Cell Lung NCI-H460", "type": "cell-based, human"}, "U251": {"tested_on": "U251", "assay": "SRB 48 h growth assay, CNS U251", "type": "cell-based, human"}, "SK-MEL-28": {"tested_on": "SK-MEL-28", "assay": "SRB 48 h growth assay, Melanoma SK-MEL-28", "type": "cell-based, human", "conditions": "SK-MEL-28, Melanoma"}, "HCC-2998": {"tested_on": "HCC-2998", "assay": "SRB 48 h growth assay, Colon HCC-2998", "type": "cell-based, human", "conditions": "HCC-2998, Colon"}, "MALME-3M": {"tested_on": "MALME-3M", "assay": "SRB 48 h growth assay, Melanoma MALME-3M", "type": "cell-based, human"}, "CAKI-1": {"tested_on": "CAKI-1", "assay": "SRB 48 h growth assay, Renal CAKI-1", "type": "cell-based, human", "conditions": "CAKI-1, Renal"}, "[3]": {"conditions": "read-out: Growth Inhibition GI50"}, "[4]": {"conditions": "read-out: Log10 GI50 (converted)"}, "[5]": {"conditions": "Homo sapiens, read-out: Growth Inhibition GI50"}, "[6]": {"conditions": "Homo sapiens, read-out: Log10 GI50 (converted)"}, "[7]": {"conditions": "Homo sapiens, read-out: Log10 LC50 (converted)"}}, "note": "“Also recorded” adds a separate entry of the source. Read-outs that look alike come from different tables or passages of the source.", "data": [{"smiles": "C#Cc1ccc(-n2c(/C=C/c3ccc(Cl)c(F)c3)nc3ncccc3c2=O)cc1", "note": "[4g, (E)-2-(4-chloro-3-fluorostyryl)-3-(4-ethynylphenyl)pyrido[2,3-d]pyrimidin-4(3H)-one]", "values": [{"measurement": "GI50", "setting": "MOLT-4; [3]", "value": 0.54, "unit": "µM"}, {"measurement": "GI50", "setting": "MOLT-4; [4]", "value": 0.55, "unit": "µM"}, {"measurement": "CC50", "setting": "MOLT-4", "value": "> 100", "unit": "µM"}, {"measurement": "Log10 TGI50", "setting": "MOLT-4", "value": ">−4.00"}, {"measurement": "GI50", "setting": "[1]", "value": "0.28 to 0.36", "unit": "µM"}, {"measurement": "GI50", "setting": "SR; [3]", "value": 0.33, "unit": "µM"}, {"measurement": "GI50", "setting": "SR; [4]", "value": 0.331, "unit": "µM"}, {"measurement": "CC50", "setting": "SR", "value": "> 100", "unit": "µM"}, {"measurement": "anticancer activity (in words)", "setting": "[2]", "value": "highest anticancer activity; also recorded: good profile at nanomolar range growth inhibition activity in several cancer cell lines"}]}, {"smiles": "C#Cc1ccc(-n2c(/C=C/c3ccc(O)cc3)nc3ncccc3c2=O)cc1", "note": "[4b, (E)-3-(4-Ethynylphenyl)-2-(4-hydroxystyryl)pyrido[2,3-d]pyrimidin-4(3H)-one]", "values": [{"measurement": "GI50", "setting": "UO-31; [5]", "value": 3.79, "unit": "µM"}, {"measurement": "GI50", "setting": "UO-31; [6]", "value": 3.8, "unit": "µM"}, {"measurement": "CC50", "setting": "UO-31; [7]", "value": "> 100", "unit": "µM"}, {"measurement": "Log10 TGI50", "setting": "UO-31", "value": "−4.47"}, {"measurement": "Log10 TGI50", "setting": "SN12C", "value": ">−4.00"}, {"measurement": "GI50", "setting": "SN12C; [5]", "value": 5.16, "unit": "µM"}, {"measurement": "GI50", "setting": "SN12C; [6]", "value": 5.13, "unit": "µM"}, {"measurement": "CC50", "setting": "SN12C; [7]", "value": "> 100", "unit": "µM"}, {"measurement": "Log10 TGI50", "setting": "HT-29", "value": ">−4.00"}, {"measurement": "GI50", "setting": "HT-29; [5]", "value": 52.8, "unit": "µM"}, {"measurement": "GI50", "setting": "HT-29; [6]", "value": 52.5, "unit": "µM"}, {"measurement": "CC50", "setting": "HT-29; [7]", "value": "> 100", "unit": "µM"}, {"measurement": "Log10 TGI50", "setting": "IGROV1", "value": "−4.45"}, {"measurement": "GI50", "setting": "IGROV1; Homo sapiens, IGROV-1, read-out: Growth Inhibition GI50", "value": 4.69, "unit": "µM"}, {"measurement": "GI50", "setting": "IGROV1; Homo sapiens, IGROV-1, read-out: Log10 GI50 (converted)", "value": 4.68, "unit": "µM"}, {"measurement": "CC50", "setting": "IGROV1; Homo sapiens, IGROV-1, read-out: Log10 LC50 (converted)", "value": "> 100", "unit": "µM"}, {"measurement": "GI50", "setting": "MOLT-4; [3]", "value": 7.35, "unit": "µM"}, {"measurement": "GI50", "setting": "MOLT-4; [4]", "value": 7.41, "unit": "µM"}, {"measurement": "CC50", "setting": "MOLT-4", "value": "> 100", "unit": "µM"}, {"measurement": "Log10 TGI50", "setting": "MOLT-4", "value": ">−4.00"}, {"measurement": "GI50", "setting": "SK-MEL-2; [5]", "value": 3.95, "unit": "µM"}, {"measurement": "GI50", "setting": "SK-MEL-2; [6]", "value": 3.98, "unit": "µM"}, {"measurement": "CC50", "setting": "SK-MEL-2; [7]", "value": "> 100", "unit": "µM"}, {"measurement": "Log10 TGI50", "setting": "SK-MEL-2", "value": "−4.39"}, {"measurement": "GI50", "setting": "[1]", "value": "2.63 to 20.5", "unit": "µM"}, {"measurement": "Log10 TGI50", "setting": "NCI-H460", "value": "−4.85"}, {"measurement": "GI50", "setting": "NCI-H460; [5]", "value": 3.33, "unit": "µM"}, {"measurement": "GI50", "setting": "NCI-H460; [6]", "value": 3.31, "unit": "µM"}, {"measurement": "LC50", "setting": "NCI-H460; [7]", "value": "> 100", "unit": "µM"}, {"measurement": "Log10 TGI50", "setting": "U251", "value": ">−4.00"}, {"measurement": "GI50", "setting": "U251; Homo sapiens, U-251, read-out: Growth Inhibition GI50", "value": 4.02, "unit": "µM"}, {"measurement": "GI50", "setting": "U251; Homo sapiens, U-251, read-out: Log10 GI50 (converted)", "value": 3.98, "unit": "µM"}, {"measurement": "CC50", "setting": "U251; Homo sapiens, U-251, read-out: Log10 LC50 (converted)", "value": "> 100", "unit": "µM"}, {"measurement": "Log10 TGI50", "setting": "SR", "value": ">−4.00"}, {"measurement": "GI50", "setting": "SR; [3]", "value": 3.54, "unit": "µM"}, {"measurement": "GI50", "setting": "SR; [4]", "value": 3.55, "unit": "µM"}, {"measurement": "CC50", "setting": "SR", "value": "> 100", "unit": "µM"}, {"measurement": "GI50", "setting": "SK-MEL-28; [5]", "value": 5.97, "unit": "µM"}, {"measurement": "GI50", "setting": "SK-MEL-28; [6]", "value": 6.03, "unit": "µM"}, {"measurement": "CC50", "setting": "SK-MEL-28; [7]", "value": "> 100", "unit": "µM"}, {"measurement": "Log10 TGI50", "setting": "SK-MEL-28", "value": ">−4.00"}, {"measurement": "Log10 TGI50", "setting": "HCC-2998", "value": ">−4.00"}, {"measurement": "GI50", "setting": "HCC-2998; [5]", "value": 25.7, "unit": "µM"}, {"measurement": "GI50", "setting": "HCC-2998; [6]", "value": 25.7, "unit": "µM"}, {"measurement": "CC50", "setting": "HCC-2998; [7]", "value": "> 100", "unit": "µM"}, {"measurement": "Log10 TGI50", "setting": "MALME-3M", "value": ">−4.00"}, {"measurement": "GI50", "setting": "MALME-3M; [5]", "value": 5.13, "unit": "µM"}, {"measurement": "GI50", "setting": "MALME-3M; [6]", "value": 5.13, "unit": "µM"}, {"measurement": "CC50", "setting": "MALME-3M; [7]", "value": "> 100", "unit": "µM"}, {"measurement": "Log10 TGI50", "setting": "CAKI-1", "value": ">−4.00"}, {"measurement": "GI50", "setting": "CAKI-1; [5]", "value": 4.15, "unit": "µM"}, {"measurement": "GI50", "setting": "CAKI-1; [6]", "value": 4.17, "unit": "µM"}, {"measurement": "CC50", "setting": "CAKI-1; [7]", "value": "> 100", "unit": "µM"}]}]}
